Where “and” joins values, the source holds several entries; their conditions need not be identical. Identical values can stand only once. Counter-ions that a name gives are not always drawn.
Structure (SMILES)	melting point
CCCCCCCC/C=CCCCCCCCCCCCC(=O)O [erucic acid]	31 °C
CC[C@H]1OC(=O)[C@H](C)[C@@H](O[C@H]2C[C@@](C)(OC)[C@@H](O)[C@H](C)O2)[C@H](C)[C@@H](O[C@@H]2O[C@H](C)C[C@H](N(C)C)[C@H]2O)[C@](C)(O)C[C@@H](C)C(=O)[C@H](C)[C@@H](O)[C@]1(C)O [erythromycin]	191 °C
C[C@]12CC[C@@H]3c4ccc(O)cc4CC[C@H]3[C@@H]1CC[C@@H]2O [estradiol] [listing 1 of 2 here]	176 °C and 178 °C
C[C@]12CC[C@@H]3c4ccc(O)cc4CC[C@H]3[C@@H]1CC[C@@H]2O [estradiol] [listing 2 of 2 here]	176 °C
CCS [ethanethiol]	-148 °C
CCOC(=O)c1csnn1 [ethyl 1,2,3-thiadiazole-4-carboxylate]	84 °C
CCOC(=O)c1cnn(-c2ccccc2)c1 [ethyl 1-phenyl-1h-pyrazole-4-carboxylate]	98 °C
CCOC(=O)c1c(O)cc(C)nc1O [ethyl 2,4-dihydroxy-6-methylnicotinate]	212 °C
CCOC(=O)c1csc(C)n1 [ethyl 2-methylthiazole-4-carboxylate]	55 °C
CCOC(=O)c1c[nH]nc1C(F)(F)F [ethyl 3-trifluoromethyl-1h-pyrazole-4-carboxylate]	144 °C
CCOC(=O)c1ccc(CBr)cc1 [ethyl 4-(bromomethyl)benzoate]	31 °C
CCOC(=O)c1ccc(O)cc1 [ethyl 4-hydroxybenzoate] [listing 1 of 2 here]	117 °C
CCOC(=O)c1ccc(O)cc1 [ethyl 4-hydroxybenzoate] [listing 2 of 2 here]	117 °C
CCOC(=O)c1cnn(C)c1N [ethyl 5-amino-1-methyl-1h-pyrazole-4-carboxylate]	100 °C
CCOC(=O)c1ccc([N+](=O)[O-])o1 [ethyl 5-nitro-2-furoate]	101 °C
CCOC=C(C#N)C(=O)OCC [ethyl (ethoxymethylene)cyanoacetate]	50 °C
CCOC(=O)c1ccccc1N [ethyl anthranilate]	15 °C
CCOC(N)=O [ethyl carbamate]	49 °C
CCOC(=O)CCl [ethyl chloroacetate]	-26 °C
CCOC(=O)/C=C/c1ccccc1 [ethyl cinnamate]	7 °C
CCOC=O [ethyl formate]	-81 °C
CCCCCCC(=O)OCC [ethyl heptanoate]	-66 °C

Structure (SMILES)	melting point
CCN=C=S [ethyl isothiocyanate]	-6 °C
CCSC [ethyl methyl sulfide]	-106 °C
CCOC(=O)c1cccnc1 [ethyl nicotinate]	9 °C
CCCCCCCCC(=O)OCC [ethyl nonanoate]	-44 °C
CCCCCCCC(=O)OCC [ethyl octanoate]	-47 °C
CCOC(=O)C(=O)Nc1ccccc1 [ethyl oxanilate]	67 °C
CCOC(=O)c1ccc(O)cc1 [ethyl p-hydroxybenzoate]	116 °C
CCOC(=O)Cc1ccccc1 [ethyl phenylacetate]	-29 °C
CCOC(=O)C(C)=O [ethyl pyruvate]	-58 °C
CCOC(=O)c1ccc(N)cc1 [ethyl-4-aminobenzoate (benzocaine)]	89 °C
CCOC(=O)c1ccc(N)cc1 [ethyl_4-aminobenzoate]	89 °C
CCC#N [ethyl_cyanide]	-93 °C
CCOC(=O)CC(C)C [ethyl_isovalerate]	-99 °C
CCOC(=O)c1ccc(C(C)=O)cc1 [ethyl_p-acetylbenzoate]	55 °C
CCOC(=O)c1ccc(C#N)cc1 [ethyl_p-cyanobenzoate]	54 °C
NCCN [ethylenediamine]	10 °C
CCOC(=O)c1ccc(O)cc1 [ethylparaben]	116 °C
COP(=S)(OC)Oc1cc(Cl)c(Cl)cc1Cl [fenchlorphos]	35 °C
CC1(C)C(=O)[C@@]2(C)CC[C@@H]1C2 [fenchone]	6 °C
c1ccc(C(CCN2CCCCC2)c2ccccc2)cc1 [fenpiprane]	41 °C
O=C(O)c1ccccc1Nc1cccc(C(F)(F)F)c1 [flufenamic acid]	134 °C
CC1CCc2cc(F)cc3c(=O)c(C(=O)O)cn1c23 (configuration not stated) [flumequine]	253 °C

Structure (SMILES)	melting point
c1ccc2c(c1)Cc1ccccc1-2 [fluorene]	116 °C
O=C1OC2(c3ccc(O)cc3Oc3cc(O)ccc32)c2ccccc21 [fluorescein]	320 °C
O=[N+]([O-])c1ccc(Oc2ccc(C(F)(F)F)cc2[N+](=O)[O-])cc1 [fluorodifen]	94 °C
CF [fluoromethane]	-142 °C
CCOC(=O)Nc1ccc(NCc2ccc(F)cc2)nc1N [flupirtine]	114 °C
CC(C(=O)O)c1ccc(-c2ccccc2)c(F)c1 (configuration not stated) [flurbiprofen] [listing 1 of 2 here]	110 °C
CC(C(=O)O)c1ccc(-c2ccccc2)c(F)c1 (configuration not stated) [flurbiprofen] [listing 2 of 2 here]	110 °C
O=CNc1ccccc1 [formanilide]	47 °C
O=C(O)c1ccccc1OP(=O)(O)O [fosfosal]	168 °C
O=C(O)/C=C/C(=O)O [fumaric acid]	300 °C
OB(O)c1ccoc1 [furan-3-boronic acid]	142 °C
OC[C@H]1O[C@H](O)[C@H](O)[C@@H](O)[C@@H]1O [glucose]	150 °C and 146 °C (3×) and 147 °C
CCC1(c2ccccc2)CCC(=O)NC1=O (configuration not stated) [glutethimide]	87.5 °C
c1ccc(OCC2CO2)cc1 (configuration not stated) [glycidyl phenyl ether]	4 °C
N=C(N)NCC1COc2ccccc2O1 (configuration not stated) [guanoxan]	164 °C
CCC1(C2=CCCCCC2)C(=O)NC(=O)NC1=O [heptabarbital] [listing 1 of 2 here]	174 °C
CCC1(C2=CCCCCC2)C(=O)NC(=O)NC1=O [heptabarbital] [listing 2 of 2 here]	174 °C
ClC1/C=C\C2C3(Cl)C(\Cl)=C(\Cl)C(Cl)(C12)C3(Cl)Cl (configuration not stated) [heptachlor]	95 °C and 95.5 °C
CCCCCCC=O [heptanal]	-43 °C
CC1(c2ccccc2)C(=O)NC(=O)NC1=O [heptobarbital]	228 °C
CC(=O)Oc1ccc2c3c1O[C@H]1[C@@H](OC(C)=O)C=C[C@H]4[C@@H](C2)N(C)CC[C@@]341 [heroin]	173 °C
COc1ccc([C@@H]2CC(=O)c3c(O)cc(O)cc3O2)cc1O [hesperetin]	228 °C

Structure (SMILES)	melting point
Clc1c(Cl)c(Cl)c(Cl)c(Cl)c1Cl [hexachlorobenzene] [listing 1 of 2 here]	231 °C
Clc1c(Cl)c(Cl)c(Cl)c(Cl)c1Cl [hexachlorobenzene] [listing 2 of 2 here]	230 °C and 229 °C
Cc1c(C)c(C)c(C)c(C)c1C [hexamethylbenzene]	165 °C
CCCCCC(N)=O [hexanamide]	101 °C
O=C(O)CNC(=O)c1ccccc1 [hippuric acid]	190 °C
O=C1Cc2ccccc2C(=O)O1 [homophthalic anhydride]	142 °C
O=C1CNC(=O)N1 [hydantoin]	222 °C
c1ccc(NNc2ccccc2)cc1 [hydrazobenzene]	125 °C
NS(=O)(=O)c1cc2c(cc1Cl)NCNS2(=O)=O [hydrochlorothiazide]	269 °C
C[C@]12CCC(=O)C=C1CC[C@@H]1[C@@H]2[C@@H](O)C[C@@]2(C)[C@H]1CC[C@]2(O)C(=O)CO [hydrocortisone] [listing 1 of 2 here]	214 °C
C[C@]12CCC(=O)C=C1CC[C@@H]1[C@@H]2[C@@H](O)C[C@@]2(C)[C@H]1CC[C@]2(O)C(=O)CO [hydrocortisone] [listing 2 of 2 here]	221 °C
Cc1ccc(S(=O)(=O)OI(O)c2ccccc2)cc1 [hydroxy(tosyloxy)iodobenzene]	134 °C
CC(C)Cc1ccc(C(C)C(=O)O)cc1 (configuration not stated) [ibuprofen]	75 °C
CC(C(O)c1ccc(O)cc1)N1CCC(Cc2ccccc2)CC1 (configuration not stated) [ifenprodil]	114 °C
O=P1(NCCCl)OCCCN1CCCl (configuration not stated) [ifosfamide]	45.5 °C and 48 °C
c1ccc2c(c1)CCC2 [indane]	-51 °C
OB(O)c1ccc2[nH]ccc2c1 [indole-5-boronic acid]	173 °C
O=C(NC1CCN(CCc2c[nH]c3ccccc23)CC1)c1ccccc1 [indoramin]	208 °C
Ic1ccccc1 [iodobenzene]	-31 °C
IC(I)I [iodoform]	122 °C
CC(C)Oc1ccc2c(=O)c(-c3ccccc3)coc2c1 [ipriflavone]	115 °C
CCOP(=S)(OCC)Oc1nc(Cl)n(C(C)C)n1 [isazophos]	25 °C

Structure (SMILES)	melting point
O=C(O)CCCCC=C(c1ccccc1)c1cccnc1 [isbogrel]	114 °C
CC(=O)OCCC(C)C [isoamyl_acetate]	-78 °C
CC(C)CN [isobutylamine]	-85 °C
CC(C)C(N)=O [isobutyramide]	129 °C
CC(C)C(=O)c1ccccc1 [isobutyrophenone]	1 °C
C/C=C/c1ccc(O)c(OC)c1 [isoeugenol, cis trans]	-10 °C
NNC(=O)c1ccncc1 [isoniazid]	171 °C
NNC(=O)c1ccncc1 [isonicotinic acid hydrazide]	172 °C
O=C(O)c1cc[n+]([O-])cc1 [isonicotinic acid n-oxide]	270 °C
CC(=O)OCCC(C)C [isopentyl acetate]	-78 °C
COC(=O)c1cccc(C(N)=O)c1 [isophthalic_acid,_methylester_amide]	148 °C
O=C(Cl)c1cccc(C(=O)Cl)c1 [isophthaloyl dichloride]	44 °C
C=CC(=C)C [isoprene]	-146 °C
CC(=O)CC(=O)OC(C)C [isopropyl acetoacetate]	-27 °C
CC(C)OC(=O)Nc1ccccc1 [isopropyl n-phenylcarbamate]	88 °C
CC(C)C(C(=O)O)C(=O)O [isopropylmalonic acid]	89 °C
O=[N+]([O-])O[C@H]1CO[C@H]2[C@@H]1OC[C@H]2O[N+](=O)[O-] [isosorbide dinitrate]	70 °C
CC(C)CC(=O)O [isovaleric acid]	-29.3 °C
CC(C(=O)O)c1cccc(C(=O)c2ccccc2)c1 (configuration not stated) [ketoprofen]	94 °C (2×) and 93 °C

From the Bradley open melting point set (2014)
